Test results reported in PMC8617944, “Preclinical Pharmacokinetics and Acute Toxicity in Rats of 5-{[(2E)-3-Bromo-3-carboxyprop-2-enoyl]amino}-2-hydroxybenzoic Acid: A Novel 5-Aminosalicylic Acid Derivative with Potent Anti-Inflammatory Activity” (Molecules, 2021).
“Also recorded” adds a separate entry of the source. Where two headings read alike, the source gives them in different places.

Experiment: Distribution of C1 in tissues
Assay type: in vivo, Wistar rats
Conditions: p.o. 75 mg/kg
Experimental: Fifteen male Wistar rats were distributed in five groups (n = 3) and rats were orally administered C1 at a single dose of 75 mg/kg. Subsequently, a group of animals was sacrificed (n = 3) at 10, 30, 90, 180, and 360 min. […] All tissues and organs were weighed on an analytical balance and immediately processed. Each tissue sample was homogenized with saline solution in a 1:3 (wt/v) ratio. The preparation process for analysis was the same as described above for plasma samples [57] (File S8).

Question: Which results are given for O=C(/C=C(/Br)C(=O)O)Nc1ccc(O)c(C(=O)O)c1 [Compound C1, 5-{[(2E)-3-bromo-3-carboxyprop-2-enoyl]amino}-2-hydroxybenzoic acid]?
Answer: concentration at 6 h (male, Wistar, rat, heart, po, 75 mg/kg, Hearth, 6 h, n = 3, read-out: Average Concentration): 2.7 µg/mL; concentration at 30 min (male, Wistar, rat, heart, po, 75 mg/kg, Hearth, individual rats, read-out: Concentration (µg/mL) at 30 minutes, Rat 1-3): 3.8 µg/mL; concentration at 90 min (male, Wistar, rat, heart, po, 75 mg/kg, Hearth, individual rats, read-out: Concentration (µg/mL) at 90 minutes, Rat 1-3): 2.7 µg/mL; concentration at 3 h (male, Wistar, rat, heart, po, 75 mg/kg, Hearth, individual rats, read-out: Concentration (µg/mL) at 3 h, Rat 1-3): 2.5 µg/mL; concentration at 6 h (male, Wistar, rat, heart, po, 75 mg/kg, Hearth, individual rats, read-out: Concentration (µg/mL) at 6 h, Rat 1-3): 2.4 µg/mL; concentration at 10 min (male, Wistar, rat, kidney, po, 75 mg/kg, Kidney, 10 min, n = 3, read-out: Average Concentration): 16 µg/mL; concentration at 30 min (male, Wistar, rat, kidney, po, 75 mg/kg, Kidney, 30 min, n = 3, read-out: Average Concentration): 6.9 µg/mL; concentration at 90 min (male, Wistar, rat, kidney, po, 75 mg/kg, Kidney, 90 min, n = 3, read-out: Average Concentration): 4.8 µg/mL; concentration at 3 h (male, Wistar, rat, kidney, po, 75 mg/kg, Kidney, 3 h, n = 3, read-out: Average Concentration): 4.7 µg/mL; concentration at 6 h (male, Wistar, rat, kidney, po, 75 mg/kg, Kidney, 6 h, n = 3, read-out: Average Concentration): 4.1 µg/mL; concentration at 30 min (male, Wistar, rat, kidney, po, 75 mg/kg, Kidney, individual rats, read-out: Concentration (µg/mL) at 30 minutes, Rat 1-3): 6.1 µg/mL; concentration at 90 min (male, Wistar, rat, kidney, po, 75 mg/kg, Kidney, individual rats, read-out: Concentration (µg/mL) at 90 minutes, Rat 1-3): 3.6 µg/mL; concentration at 10 min (male, Wistar, rat, liver, po, 75 mg/kg, Liver, 10 min, n = 3, read-out: Average Concentration): 4.6 µg/mL; concentration at 30 min (male, Wistar, rat, liver, po, 75 mg/kg, Liver, 30 min, n = 3, read-out: Average Concentration): 6.4 µg/mL; concentration at 90 min (male, Wistar, rat, liver, po, 75 mg/kg, Liver, 90 min, n = 3, read-out: Average Concentration): 4.4 µg/mL; concentration at 3 h (male, Wistar, rat, liver, po, 75 mg/kg, Liver, 3 h, n = 3, read-out: Average Concentration): 4.9 µg/mL; concentration at 6 h (male, Wistar, rat, liver, po, 75 mg/kg, Liver, 6 h, n = 3, read-out: Average Concentration): 4.2 µg/mL; concentration at 10 min (male, Wistar, rat, liver, po, 75 mg/kg, Liver, individual rats, read-out: Concentration (µg/mL) at 10 minutes, Rat 1-3): 4.4 µg/mL; concentration at 30 min (male, Wistar, rat, liver, po, 75 mg/kg, Liver, individual rats, read-out: Concentration (µg/mL) at 30 minutes, Rat 1-3): 5.8 µg/mL; concentration at 10 min (male, Wistar, rat, lung, po, 75 mg/kg, Lung, 10 min, n = 3, read-out: Average Concentration): 15.7 µg/mL; concentration at 30 min (male, Wistar, rat, lung, po, 75 mg/kg, Lung, 30 min, n = 3, read-out: Average Concentration): 10.7 µg/mL; concentration at 90 min (male, Wistar, rat, lung, po, 75 mg/kg, Lung, 90 min, n = 3, read-out: Average Concentration): 7.4 µg/mL; concentration at 3 h (male, Wistar, rat, lung, po, 75 mg/kg, Lung, 3 h, n = 3, read-out: Average Concentration): 7.2 µg/mL; concentration at 6 h (male, Wistar, rat, lung, po, 75 mg/kg, Lung, 6 h, n = 3, read-out: Average Concentration): 6.3 µg/mL; concentration at 10 min (male, Wistar, rat, muscle, po, 75 mg/kg, Muscle, 10 min, n = 3, read-out: Average Concentration): 4.7 µg/mL; concentration at 30 min (male, Wistar, rat, muscle, po, 75 mg/kg, Muscle, 30 min, n = 3, read-out: Average Concentration): 3.8 µg/mL; concentration at 90 min (male, Wistar, rat, muscle, po, 75 mg/kg, Muscle, 90 min, n = 3, read-out: Average Concentration): 3.3 µg/mL; concentration at 3 h (male, Wistar, rat, muscle, po, 75 mg/kg, Muscle, 3 h, n = 3, read-out: Average Concentration): 2.7 µg/mL; concentration at 6 h (male, Wistar, rat, muscle, po, 75 mg/kg, Muscle, 6 h, n = 3, read-out: Average Concentration): 2.5 µg/mL; concentration at 10 min (male, Wistar, rat, muscle, po, 75 mg/kg, Muscle, individual rats, read-out: Concentration (µg/mL) at 10 minutes, Rat 1-3): 4.8 µg/mL; concentration at 30 min (male, Wistar, rat, muscle, po, 75 mg/kg, Muscle, individual rats, read-out: Concentration (µg/mL) at 30 minutes, Rat 1-3): 3.4 µg/mL; concentration at 90 min (male, Wistar, rat, muscle, po, 75 mg/kg, Muscle, individual rats, read-out: Concentration (µg/mL) at 90 minutes, Rat 1-3): 3.2 µg/mL; concentration at 3 h (male, Wistar, rat, muscle, po, 75 mg/kg, Muscle, individual rats, read-out: Concentration (µg/mL) at 3 h, Rat 1-3): 3 µg/mL; Tmax (male, Wistar, rat, po, rats, read-out: time of maximum concentration in tissues and organs (converted)): 10 min; concentration at 10 min (male, Wistar, rat, small intestine, po, 75 mg/kg, Small intestine, 10 min, n = 3, read-out: Average Concentration): 31.6 µg/mL; concentration at 30 min (male, Wistar, rat, small intestine, po, 75 mg/kg, Small intestine, 30 min, n = 3, read-out: Average Concentration): 15.7 µg/mL; concentration at 90 min (male, Wistar, rat, small intestine, po, 75 mg/kg, Small intestine, 90 min, n = 3, read-out: Average Concentration): 15.8 µg/mL; concentration at 3 h (male, Wistar, rat, small intestine, po, 75 mg/kg, Small intestine, 3 h, n = 3, read-out: Average Concentration): 14.8 µg/mL; concentration at 6 h (male, Wistar, rat, small intestine, po, 75 mg/kg, Small intestine, 6 h, n = 3, read-out: Average Concentration): 10.1 µg/mL; concentration at 90 min (male, Wistar, rat, small intestine, po, 75 mg/kg, Small intestine, individual rats, read-out: Concentration (µg/mL) at 90 minutes, Rat 1-3): 15.1 µg/mL; concentration at 3 h (male, Wistar, rat, small intestine, po, 75 mg/kg, Small intestine, individual rats, read-out: Concentration (µg/mL) at 3 h, Rat 1-3): 14.2 µg/mL; concentration at 6 h (male, Wistar, rat, small intestine, po, 75 mg/kg, Small intestine, individual rats, read-out: Concentration (µg/mL) at 6 h, Rat 1-3): 9.1 µg/mL; concentration at 10 min (male, Wistar, rat, spleen, po, 75 mg/kg, Spleen, 10 min, n = 3, read-out: Average Concentration): 31.8 µg/mL; concentration at 30 min (male, Wistar, rat, spleen, po, 75 mg/kg, Spleen, 30 min, n = 3, read-out: Average Concentration): 17.2 µg/mL; concentration at 90 min (male, Wistar, rat, spleen, po, 75 mg/kg, Spleen, 90 min, n = 3, read-out: Average Concentration): 11.7 µg/mL; concentration at 3 h (male, Wistar, rat, spleen, po, 75 mg/kg, Spleen, 3 h, n = 3, read-out: Average Concentration): 8.7 µg/mL; concentration at 6 h (male, Wistar, rat, spleen, po, 75 mg/kg, Spleen, 6 h, n = 3, read-out: Average Concentration): 7.8 µg/mL; concentration at 10 min (male, Wistar, rat, spleen, po, 75 mg/kg, Spleen, individual rats, read-out: Concentration (µg/mL) at 10 minutes, Rat 1-3): 30 µg/mL; concentration at 30 min (male, Wistar, rat, spleen, po, 75 mg/kg, Spleen, individual rats, read-out: Concentration (µg/mL) at 30 minutes, Rat 1-3): 21 µg/mL; concentration at 10 min (male, Wistar, rat, stomach, po, 75 mg/kg, Stomach, 10 min, n = 3, read-out: Average Concentration): 18.3 µg/mL; concentration at 30 min (male, Wistar, rat, stomach, po, 75 mg/kg, Stomach, 30 min, n = 3, read-out: Average Concentration): 10.2 µg/mL; concentration at 90 min (male, Wistar, rat, stomach, po, 75 mg/kg, Stomach, 90 min, n = 3, read-out: Average Concentration): 7.9 µg/mL; concentration at 3 h (male, Wistar, rat, stomach, po, 75 mg/kg, Stomach, 3 h, n = 3, read-out: Average Concentration): 6.4 µg/mL; concentration at 6 h (male, Wistar, rat, stomach, po, 75 mg/kg, Stomach, 6 h, n = 3, read-out: Average Concentration): 4.7 µg/mL; concentration at 10 min (male, Wistar, rat, testis, po, 75 mg/kg, Testis, 10 min, n = 3, read-out: Average Concentration): 9.9 µg/mL; concentration at 30 min (male, Wistar, rat, testis, po, 75 mg/kg, Testis, 30 min, n = 3, read-out: Average Concentration): 3.8 µg/mL; concentration at 90 min (male, Wistar, rat, testis, po, 75 mg/kg, Testis, 90 min, n = 3, read-out: Average Concentration): 4 µg/mL; concentration at 3 h (male, Wistar, rat, testis, po, 75 mg/kg, Testis, 3 h, n = 3, read-out: Average Concentration): 3 µg/mL; concentration at 6 h (male, Wistar, rat, testis, po, 75 mg/kg, Testis, 6 h, n = 3, read-out: Average Concentration): 3.1 µg/mL; concentration at 30 min (male, Wistar, rat, testis, po, 75 mg/kg, Testis, individual rats, read-out: Concentration (µg/mL) at 30 minutes, Rat 1-3): 4 µg/mL; concentration at 3 h (male, Wistar, rat, testis, po, 75 mg/kg, Testis, individual rats, read-out: Concentration (µg/mL) at 3 h, Rat 1-3): 3.1 µg/mL; concentration at 6 h (male, Wistar, rat, testis, po, 75 mg/kg, Testis, individual rats, read-out: Concentration (µg/mL) at 6 h, Rat 1-3): 2.1 µg/mL; crossing of blood-brain barrier and hemato-testicular barrier (rats, 75 mg/kg): able to cross the blood-brain barrier and hemato-testicular barrier; also recorded: crossed the hemato-encephalic barrier
